According to patent publication US20250340590A1, “PEPTIDE HAVING ANTI-INFLAMMATORY ACTIVITY AND USE THEREOF” (CAREGEN CO., LTD., priority 2021, published 2025):

Legend:
[1] = test system: Cox2; assay: Cox2 protein level by Western blot in HaCaT cells induced with LPS, TGFβ and IL-23; format: cell-based, human; conditions: IL-23 and LPS, peptide at 5 μM and 50 μM, 24 hours, compared to group not treated with the peptide
Procedure: In order to further confirm the anti-inflammatory effect of the peptide treatment of the present invention in addition to the results of Experimental Example 1, HaCaT cells were treated with Th17 (type 17), which is an inflammation-inducing substance, and the expression levels of inflammation-inducing markers iNos and Cox2 were confirmed. As the inflammation-inducing substances, the cells were treated with LPS, TGFβ, and IL-23, and since iNos is an enzyme involved in the production of nitric oxide (NO), which is an inflammation-related protein induced by LPS, etc., it is possible to confirm whether inflammation is inhibited by measuring the expression levels of iNos and Cox2.
HaCaT cells were dispensed into a 24-well plate at a concentration of 3× 10^5 cells/well and cultured until the next day. The medium was replaced with serum-free medium, and after 4 hours, the cells were treated with TGFβ, IL-23, and LPS, which are Th17 type inflammation-inducing cytokines, and then with the peptide of the present invention and cultured again for another 24 hours. […] In order to perform Western blotting, the amounts of iNos and Cox2 proteins were measured using an anti-iNos antibody and an anti-Cox2 antibody (Cell Signaling Technology, USA). […]

[2] = test system: IL-6; assay: IL-6 mRNA level by RT-PCR in LPS-induced mouse splenocytes; format: cell-based; conditions: LPS 2 μg/mL, peptide at 5 μM and 50 μM, 24 hours, compared to group not treated with the peptide
Procedure: Inflammation was induced in mouse splenocytes, and the expression levels of TNFα, and IL-6 genes, which is the inflammatory cytokines were confirmed. In order to induce inflammation, the cells were treated with LPS, an inflammation-inducing antigen, and since TNFα corresponds to a signaling protein associated with inflammation, and IL-6 corresponds to a cytokine that promotes inflammation, the degree of inflammation can be confirmed by measuring the expression levels of TNFα and IL-6 genes.
Mouse splenocytes were dispensed into a 24-well plate at a concentration of 1×10^7 cells/well and cultured until the next day. The medium was replaced with serum-free medium, and after 3 hours, the cells were treated with LPS and the peptide of the present invention and then cultured again for another 24 hours. In order to induce inflammation, the cells were treated with LPS at 2 μg/mL, and the peptide at […] and 50 μM, respectively. […] After quantifying the amount of isolated RNA, cDNA was synthesized using a cDNA synthesis kit (Intron, Korea), PCR was performed using a PCR premix (Intron, Korea) and primers for TNFα, and IL-6. […]

[3] = test system: Cox2; assay: Cox2 mRNA level by RT-PCR in TNFα-induced mouse splenocytes; format: cell-based; conditions: TNFα 20 nM, peptide at 5 μM and 50 μM, 3 hours, compared to group not treated with the peptide
Procedure: In order to further confirm the anti-inflammatory effect of the peptide treatment of the present invention in addition to the results of Experimental Example <3-1>, inflammation was induced by treating mouse splenocytes with TNFα, and the expression levels of inflammatory cytokines TNFα and IL-1β, and Cox2, which is an inflammation-inducing marker, genes were confirmed. In order to induce inflammation, the cells were treated with cytokine TNFα, and since TNFα corresponds to a signaling protein associated with inflammation, IL-1β corresponds to a cytokine that promotes inflammation, and Cox2 is a protein associated with inflammation, the degree of inflammation can be confirmed by measuring the expression levels of TNFα, Cox2, and IL-1β genes.
Mouse splenocytes were dispensed into a 24-well plate at a concentration of 1× 10^7 cells/well and cultured until the next day. The medium was replaced with serum-free medium, and after 3 hours, the cells were treated with TNFα and the peptide of the present invention and then cultured for another 3 hours. In order to induce inflammation, the cells were treated with TNFα at 20 nM, and the peptide at 5 μM and 50 μM, respectively. […] After quantifying the amount of isolated RNA, cDNA was synthesized using a cDNA synthesis kit (Intron, Korea), PCR was performed using a PCR premix (Intron, Korea) and primers for TNFα, Cox2, and IL-1B. […]

TWNS [peptide of the present invention]
decreased: expression level of Cox2 protein [1] | mRNA expression level of IL-6 [2] | mRNA expression level of Cox2 [3]
